US20230113516A1, “5-AMINO-2,3-DIHYDRO-1,4-PHTHAL[…] TREATMENT OF ACUTE LUNG INJURY” (Metriopharm AG, priority 2020, published 2023)
Read-outs that look alike come from different tables or passages of the source.

What was measured:
[1] = tested on: 3-nitrotyrosine formation in the lung parenchyma; conditions: for 3-nitrotyrosine stained surface area, mean ± SEM: cigarette smoke alone 3.07, room air 0.24
Description: C57BL/6J mice (n=25, 5 per group; male/female, 3-6 months, 20-30 g; Charles River GmbH, Sulzfeld, Germany) were anesthetized with a ketamine (100 mg/kg body weight) and xylazine (20 mg/kg body weight) intraperitoneal injection (Ceva Tiergesundheit GmbH, Dusseldorf, Germany) containing heparin (50 I.E. heparin/g body weight; Ratiopharm GmbH, Ulm, Germany). The lungs and the heart were removed from the chest cavity and placed on the ILU system (see FIGS. 1A and 1B). Lungs were ventilated in an isolated chamber using normoxic gas (21% O2, 5% CO2, 74% N2; 150 breaths per minute at the PEEP (positive end-expiratory pressure) of 3 cm H2O) and perfused with a modified Krebs-Henseleit buffer (120.0 mM NaCl, 4.3 mM KCl, 1.1 mM KH2PO4, 2.4 mM CaCl2, 1.3 mM MgCl2, 13.14 mM glucose, 0.25 mM hydroxyethyl starch 200000/0.5, 25.0 mM NaHCO3 adjusted to a constant pH range of […] L-arginine; Serag-Wissner GmbH & Co. KG, Naila, Germany) at a temperature of 37° C. Lung weight, right and left ventricle pressure, as well as ventilatory pressure were monitored and recorded during the whole experimental procedure. After 5-10 minutes, when the lung was properly flushed and all the parameters were stable, 5-amino-2,3-dihydro-1,4-phthalazinedione sodium salt was applied by adding 150 μl of a stock solution to 15 ml of the circulating perfusion buffer. The substance was applied 10 minutes prior to the first cigarette smoke application. Cigarette smoke was applied via trachea while lung is perfused with the buffer containing 5-amino-2,3-dihydro-1,4-phthalazinedione sodium salt. Cigarette smoke was prepared freshly before each application, by burning one cigarette (research cigarettes 3R4F, University of Kentucky, USA) in one minute using normoxic gas at the flow of 1 l/min and collected in a 1 l glass bottle containing 5 g silica gel for removing the moist from the cigarette smoke. 50 ml of the cigarette smoke were taken via a syringe and applied to the lung via trachea (FIG. 4A) in deep breaths (periodic inflation for 3-4 s) over a period of 5 min. The application was done manually while carefully monitoring the inspiratory pressure to avoid damage of the lung. The cigarette smoke application was repeated three times with a 1 hour break in-between.
5-amino-2,3-dihydro-1,4-phthalazinedione sodium salt Form I was dissolved in water for injection (vehicle) at the required concentrations described above. Stock solutions were prepared in water for injection. Further 1:100 dilutions were made with modified Krebs-Henseleit buffer (see above). Stock solutions were stored at −70° C. in appropriate aliquots. The required amount of stock solution was thawed, and the corresponding working solution was prepared for immediate use.
One hour after the third cigarette smoke application lungs were removed from the system and fixed by inflating with formalin solution (via trachea) at the pressure of 12-15 cm H2O for two hours at room temperature. Afterwards the fixed lungs were kept in PBS (phosphate buffer saline, see below) at +4° C. until further dehydration and paraffin embedding. Paraffin blocks were cut 3 μm thick, dried overnight at 37° C. and stained for 3-nitrotyrosine (3-NT).
The immunohistochemical staining of 3-nitrotyrosine was carried out according to the following protocol:
Stained histological samples were blindly analysed by light microscope. 3-nitrotyrosine levels in the lung parenchyma were quantified as a percentage of stained surface area. Quantification was performed under 200× magnification in 5-10 randomly selected fields with exclusion of large bronchi and vessels. One-Way ANOVA statistical test with Bonferroni correction was performed for comparison between groups. Differences with p<0.05 were considered statistically significant.

Vero B4 cells = conditions: antivirally effective concentrations; observation period of 3 days; tested 0.25-4 mM
From the text: Herein viable cells with an intact mitochondrial succinate-tetrazolium dehydrogenase system effect an enzymatic conversion of the feebly red tetrazolium salt WST-1 (4-[3-(4-iodophenyl)-2-(4-nitrophenyl)-2H-5-tetrazolio]-1,3 benzene disulfonate) into dark red formazan. This color change can be measured photometrically in a spectrophotometer. Thus, the WST assay is a very sensitive method for measuring the toxicity of substances on the cell metabolism. The value for untreated cells was set to 100%.
The value for untreated cells was set to 100%. 1 μM staurosporine (an indolocarbazole compound from Streptomyces staurosporeus, an apoptosis inducer) was used as positive control.

[2] = tested on: murine peritoneal macrophages
From the text: Female C57Bl/6 mice (6-8 weeks old) were purchased from Envigo (San Petro al Natisone, Udine, Italy) and housed under standard laboratory conditions (specific-pathogen free). Food and water were applied ad libitum. Animal handling and the study protocol were in accordance with international guidelines.
Four days after i.p. injection of 3% thioglycolate medium (w/v in distilled water; St Louis, Mo. USA), murine peritoneal macrophages (PM) were isolated according to the protocol of Zhang et al. (Curr. Protoc. Immunol. 2008, Chapter 14, Unit 14.1).
Briefly, cells were collected by injecting 10 ml of complete medium (DMEM/F12 Medium containing 10% fetal calf serum) into the peritoneal cavity using a 30 cc syringe attached to a 19-G needle, followed by slowly withdrawing the lavage fluid. Cells were washed twice in PBS (phosphate buffered saline) and counted.
One hour prior to LPS (lipopolysaccharide) stimulation (0.1 μg/ml; Escherichia coli […], St Louis, Mo. USA), cells (0.5×10^6 cells/well in 24-well plates with 1 ml total volume of medium) were pre-treated with scalar concentrations of 5-amino-2,3-dihydro-1,4-phthalazinedione sodium salt (ranging from 1 mM to 0.025 mM). Two independent experiments (each using cells pooled from three mice) were performed and secreted cytokine levels were determined 24, 48 and 72 h after LPS stimulation using ELISA technique.

PCI model of sepsis = conditions: for survival rate after 10 days: therapeutic mode, n=6
Description: In the PCI (peritoneal contamination and infection) model of sepsis a human fecal suspension was injected intraperitoneally to mice (3 μl/g body weight). To all groups the antibiotic meropenem (25 mg/kg body weight) was administered 6 hours after PCI induction. At this time point all mice received also a volume loading with a 5% glucose solution. This treatment is repeated on the two consecutive days after PCI induction, at intervals of 24 hours. • Group I: control (not infected) • Group II: PCI (infected, without treatment) • Group III: PCI+2 mg/kg body weight 5-amino-2,3-dihydro-1,4-phthalazinedione sodium salt Form I • Group IV: PCI+5 mg/kg body weight 5-amino-2,3-dihydro-1,4-phthalazinedione sodium salt Form I
Starting at 8 hours after PCI induction the mice of the treatment groups were treated for two consecutive days every 8 hours with an intraperitoneal injection of 2 mg/kg body weight, respectively 5 mg/kg body weight 5-amino-2,3-dihydro-1,4-phthalazinedione sodium salt Form I. Thereupon the mice were treated for further eight days with an intraperitoneal injection of 2 mg/kg body weight, respectively 5 mg/kg body weight 5-amino-2,3-dihydro-1,4-phthalazinedione sodium salt Form I once daily. (n=6)
Herein the mice were treated with 5 mg/kg body weight 5-amino-2,3-dihydro-1,4-phthalazinedione sodium salt Form I only, but only twice, 3 hours before PCI induction and 6 hours after (n=8).
The Clinical Severity Score (CSS) was assessed daily for the mice of the prophylactic treatment group. The CSS was assessed according to Gonnert et al. (2011) J Surg Res 170: e123-134.

[3] = 1 mM, pre-treatment 1 h prior to LPS (0.1 μg/ml), C57Bl/6 PMs

## Nc1cccc2c(=O)[nH][nH]c(=O)c12.[Na] [5-amino-2,3-dihydro-1,4-phthalazinedione sodium salt]
SARS-CoV-2
  SARS-CoV-2 nucleocapsid protein (Western Blot): clear reduction
  generation of SARS-CoV-2 proteins (densitometric evaluation): inhibited dose-dependently
[1]; 0.5 mM in perfusion buffer
  cigarette smoke induced 3-nitrotyrosine formation (in words): moderate effect
[1]; 1 mM in perfusion buffer
  cigarette smoke induced 3-nitrotyrosine formation (in words): almost completely abolished
[1]; 2 mM in perfusion buffer
  cigarette smoke induced 3-nitrotyrosine formation (in words): almost completely abolished
[1]; cigarette smoke + 0.5 mM in perfusion buffer (group C)
  3-nitrotyrosine stained surface area, mean ± SEM: 2.24 ± 0.28 % area
[1]; cigarette smoke + 1 mM in perfusion buffer (group D)
  3-nitrotyrosine stained surface area, mean ± SEM: 0.72 ± 0.26 % area
[1]; cigarette smoke + 2 mM in perfusion buffer (group E)
  3-nitrotyrosine stained surface area, mean ± SEM: 0.37 ± 0.13 % area
Vero B4 cells
  toxic effect (cell viability, WST assay): does not display any significant toxic effect
[2]; [3]
  reduction of IL-1-beta level: ~50%
  reduction of IL-6 level: ~80%
  reduction of IL-12 level: ~60%
  reduction of TNF-alpha level: about 40%
[2]; Balb/c, six concentrations from 1 mM to 0.25 mM, data not shown
  cytokine reduction in PMs of a second mouse strain: clear dose-dependency
[2]; no LPS, data not shown
  cytokine secretion of unstimulated murine PMs: did not affect
PCI model of sepsis; prophylactic mode, 5 mg/kg body weight, 3 hours before and 6 hours after PCI induction, Group IV, n=8
  survival rate: 100%
PCI model of sepsis; prophylactic mode, 5 mg/kg body weight, in particular after Day 4
  recovery (Clinical Severity Score) versus untreated group: recovered clearly more quickly
PCI model of sepsis; prophylactic mode, 5 mg/kg body weight, surviving animals
  Clinical Severity Score (CSS) versus untreated group: less strongly diseased
PCI model of sepsis; 2 mg/kg body weight i.p., Group III
  survival rate after 10 days: 50%
PCI model of sepsis; 5 mg/kg body weight i.p., Group IV
  survival rate after 10 days: 83%
